This is an account of results in ChEMBL document CHEMBL5441456, “ASAP - SARS-CoV-2 nsp3 macrodomain dose response” (2024).

“And” between values parts separate entries of the source, which are not always exact repeats. Equal values may be shown once.

This assay deals with Replicase polyprotein 1ab (Severe acute respiratory syndrome coronavirus 2, UniProt P0DTD1). Description: Functional biochemical assay to identify treatments for viral infectious disease that targets SARS-COV-2 nsp3 macrodomain, whereby the mechanism of action displaces an ADP-Ribose modified peptide from the binding site. Utilizing a time-resolved fluorescence method to measure binding by reading the emitted fluorescence intensity in two wavelengths.
Turning to `Cc1ncc(-c2cc3c(N[C@@H](c4ccc5c(c4)OCCO5)C(C)C)ncnc3[nH]2)cn1`, the IC50 is 0.479 µM and 0.585 µM. The result for `CC(C)[C@@H](Nc1ncnc2[nH]c(-c3cnn(CCC(N)=O)c3)cc12)c1ccc2c(c1)OCCO2` reads 0.274 µM and 0.319 µM; that for `Cn1ncc(-c2cc3c(N[C@@H](c4ccc5c(c4)OCCO5)C(C)(C)C)ncnc3[nH]2)c1C#N`, 0.309 µM and 0.332 µM; that for `CC(C)[C@@H](Nc1ncnc2[nH]c(C3CCS(=O)(=O)CC3)cc12)c1ccc2c(c1)OCCO2`, 1.19 µM and 1.78 µM. Take `CCn1ncc(-c2cc3c(N[C@@H](c4ccc5c(c4)OCCO5)C(C)C)ncnc3[nH]2)c1C`: the half-maximal inhibitory concentration (IC50) is 0.905 µM and 1.06 µM. Turning to `CCn1ncc(-c2cc3c(N[C@@H](c4ccc5c(c4)OCCO5)C(C)C)ncnc3[nH]2)c1C#N`, the IC50 is 0.857 µM and 0.8 µM. Regarding `CC(C)[C@@H](Nc1ncnc2[nH]c(-c3cccc(NC(N)=O)c3)cc12)c1ccc2c(c1)OCCO2`, the IC50 was 5.14 µM and 5.85 µM. Next, `CCn1ncc(-c2cc3c(N[C@@H](c4ccc5c(c4)OCCO5)C(C)C)ncnc3[nH]2)n1`: 1.07 µM and 1.24 µM; `CC(C)[C@@H](Nc1ncnc2[nH]c(-c3ccc(-n4cccn4)cc3)cc12)c1ccc2c(c1)OCCO2`: more than 99.5 µM; `CC(C)[C@@H](Nc1ncnc2[nH]c(-c3ccnn3C3CCC3)cc12)c1ccc2c(c1)OCCO2`: 5.59 µM and 8.76 µM. As to `CC(C)[C@@H](Nc1ncnc2[nH]c([C@@H]3CCOC3)cc12)c1ccc2c(c1)OCCO2`, the IC50 is 1.86 µM and 1.95 µM. As to `Cc1c(C#N)cncc1-c1cc2c(N[C@@H](c3ccc4c(c3)OCCO4)C(C)C)ncnc2[nH]1`, the IC50 was 19.2 µM and 16.3 µM.

For `CNCc1cc(-c2cc3c(N[C@@H](c4ccc5c(c4)OCCO5)C(C)C)ncnc3[nH]2)co1`, the IC50 is 0.281 µM and 0.383 µM.

As for `CC(C)[C@@H](Nc1ncnc2[nH]c(-c3cccc4c3CN(C)C4=O)cc12)c1ccc2c(c1)OCCO2`, the half-inhibitory concentration (IC50) is 2.15 µM and 2.54 µM. For `CC(C)[C@@H](Nc1ncnc2[nH]c(-c3cncn3C)cc12)c1ccc2c(c1)OCCO2`, the IC50 was 5.77 µM and 7.42 µM. Consider `CCn1ccc(-c2cc3c(N[C@@H](c4ccc5c(c4)OCCO5)C(C)C)ncnc3[nH]2)n1`, for which the IC50 is 1.32 µM and 1.53 µM. For the molecule `CC(C)[C@@H](Nc1ncnc2[nH]c(-c3ccnn3CC3CC3)cc12)c1ccc2c(c1)OCCO2`, the IC50 is 4.22 µM and 3.91 µM.

As to `CC(C)[C@@H](Nc1ncnc2[nH]c(-c3[nH]ncc3C3CC3)cc12)c1ccc2c(c1)OCCO2`, the IC50 was 16.1 µM and 14.3 µM.

In turn, `CC(C)[C@@H](Nc1ncnc2[nH]c(-c3cccc(CN4CCCS4(=O)=O)c3)cc12)c1ccc2c(c1)OCCO2` yielded an IC50 of more than 99.5 µM. The result for `Cc1cc(-c2cc3c(N[C@@H](c4ccc5c(c4)OCCO5)C(C)C)ncnc3[nH]2)nn1C` reads 2.79 µM and 1.62 µM; that for `CC(C)[C@@H](Nc1ncnc2[nH]c(-c3ccn(C)n3)cc12)c1ccc2c(c1)OCCO2`, 0.972 µM and 1.02 µM; that for `CC(C)[C@@H](Nc1ncnc2[nH]c(-c3cnc(C4CC4)o3)cc12)c1ccc2c(c1)OCCO2`, 3.28 µM and 3.76 µM.

Regarding `Cc1cc(-c2cc3c(N[C@@H](c4ccc5c(c4)OCCO5)C(C)C)ncnc3[nH]2)[nH]n1`, the IC50 is 2.56 µM and 3.09 µM. As to `CC(=O)c1ccc(-c2cc3c(N[C@@H](c4ccc5c(c4)OCCO5)C(C)C)ncnc3[nH]2)[nH]1`, the IC50 is 2.97 µM and 3.24 µM. Take `CC(C)[C@@H](Nc1ncnc2[nH]c(-c3ccn(C(C)C)n3)cc12)c1ccc2c(c1)OCCO2`: the IC50 is 2.27 µM and 2.62 µM. In the case of `CC(C)[C@@H](Nc1ncnc2[nH]c(-c3cncc(OCCN(C)C)c3)cc12)c1ccc2c(c1)OCCO2`, the IC50 was 0.903 µM and 0.891 µM.

As for `CC(C)[C@@H](Nc1ncnc2[nH]c(-c3ccnn3C3CC3)cc12)c1ccc2c(c1)OCCO2`, the IC50 was 1.08 µM and 1.23 µM. On to `Cc1cnn(-c2ccc(-c3cc4c(N[C@@H](c5ccc6c(c5)OCCO6)C(C)C)ncnc4[nH]3)cc2)c1`, for which the IC50 is more than 99.5 µM. For the molecule `CC(C)[C@@H](Nc1ncnc2[nH]c(-c3ccc(C#N)nc3)cc12)c1ccc2c(c1)OCCO2`, the IC50 is 1.85 µM and 2.13 µM.

As for `CC(C)[C@@H](Nc1ncnc2[nH]c(-c3cncc(C#N)c3)cc12)c1ccc2c(c1)OCCO2`, the IC50 was 5.81 µM and 7.13 µM.

`CC(C)[C@@H](Nc1ncnc2[nH]c(-c3ccnc(N4CCCC4)c3)cc12)c1ccc2c(c1)OCCO2`: the IC50 is 16.6 µM and 17.2 µM. As for `CC(=O)c1ccc(-c2cc3c(N[C@@H](c4ccc5c(c4)OCCO5)C(C)C)ncnc3[nH]2)o1`, the 50% inhibitory concentration (IC50) is 1.51 µM and 1.45 µM. Next, `CC(C)c1n[nH]cc1-c1cc2c(N[C@@H](c3ccc4c(c3)OCCO4)C(C)C)ncnc2[nH]1`: 2.01 µM and 2.07 µM; `CC(C)[C@@H](Nc1ncnc2[nH]c(-c3cc4c(C#N)cccc4[nH]3)cc12)c1ccc2c(c1)OCCO2`: more than 99.5 µM. For `CC(C)[C@@H](Nc1ncnc2[nH]c(-c3cn(C)nc3C#N)cc12)c1ccc2c(c1)OCCO2`, the IC50 was 0.871 µM and 0.843 µM.

For `COCCn1ncc(-c2cc3c(N[C@@H](c4ccc5c(c4)OCCO5)C(C)C)ncnc3[nH]2)c1C#N`, the IC50 is 0.394 µM and 0.449 µM. Next, `Cc1cocc1-c1cc2c(N[C@@H](c3ccc4c(c3)OCCO4)C(C)C)ncnc2[nH]1`: 2.51 µM and 2.58 µM; `Cc1noc(C)c1-c1cc2c(N[C@@H](c3ccc4c(c3)OCCO4)C(C)C)ncnc2[nH]1`: 16.7 µM and 18.5 µM. Take `CC(C)[C@@H](Nc1ncnc2[nH]c(-c3cnn(C4CCC4)n3)cc12)c1ccc2c(c1)OCCO2`: the IC50 is 3.84 µM and 3.92 µM. Turning to `CC(C)[C@@H](Nc1ncnc2[nH]c(-c3ccnc(C#N)c3)cc12)c1ccc2c(c1)OCCO2`, the IC50 was 2.09 µM and 2.22 µM. In the case of `CC(C)[C@@H](Nc1ncnc2[nH]c(-c3ccc(S(N)(=O)=O)cc3)cc12)c1ccc2c(c1)OCCO2`, the IC50 was 1.63 µM and 1.81 µM. Next, `CC(C)[C@@H](Nc1ncnc2[nH]c(C(=O)N(C)C)cc12)c1ccc2c(c1)OCCO2`: 21.9 µM and 18.9 µM; `Cc1coc(-c2cc3c(N[C@@H](c4ccc5c(c4)OCCO5)C(C)C)ncnc3[nH]2)c1`: more than 99.5 µM. Take `Cc1nn(C)nc1-c1cc2c(N[C@@H](c3ccc4c(c3)OCCO4)C(C)C)ncnc2[nH]1`: the IC50 was 27.6 µM and 34.2 µM. On to `Cc1cn(C)nc1-c1cc2c(N[C@@H](c3ccc4c(c3)OCCO4)C(C)C)ncnc2[nH]1`, for which the IC50 is more than 99.5 µM. For the molecule `COc1cc(Nc2ccc(C(=O)N[C@@H]3c4cccc(O)c4C[C@H]3C(=O)O)cc2)[nH]n1`, the IC50 was more than 99.5 µM. Next, `CC(C)[C@@H](Nc1ncnc2[nH]c(-c3ccc4nccn4c3)cc12)c1ccc2c(c1)OCCO2`: 1.14 µM and 1.38 µM.

For `CCn1cc(-c2cc3c(N[C@@H](c4ccc5c(c4)OCCO5)C(C)C)ncnc3[nH]2)c(C)n1`, the IC50 is 0.423 µM and 0.473 µM. Regarding `CC(C)[C@@H](Nc1ncnc2[nH]c(-c3ccc4[nH]ncc4c3)cc12)c1ccc2c(c1)OCCO2`, the IC50 was 20.5 µM and 19.7 µM. For the molecule `COc1nn(C)cc1-c1cc2c(N[C@@H](c3ccc4c(c3)OCCO4)C(C)C)ncnc2[nH]1`, the 50% inhibitory concentration (IC50) is 1.79 µM and 1.91 µM.

As for `Cc1cc(-c2cc3c(N[C@@H](c4ccc5c(c4)OCCO5)C(C)C)ncnc3[nH]2)c[nH]1`, the IC50 was 9.53 µM and 10.2 µM. Next, `Cc1cc(-c2cc3c(N[C@@H](c4ccc5c(c4)OCCO5)C(C)C)ncnc3[nH]2)n(C)n1`: 1.07 µM and 1.02 µM. For the molecule `CCn1cc(-c2cc3c(N[C@@H](c4ccc5c(c4)OCCO5)C(C)C)ncnc3[nH]2)cn1`, the half-maximal inhibitory concentration (IC50) is 0.626 µM and 0.652 µM. `COC(=O)c1c[nH]c(-c2cc3c(N[C@@H](c4ccc5c(c4)OCCO5)C(C)C)ncnc3[nH]2)c1`: the IC50 was 2.98 µM and 3.58 µM.

On to `CC(C)[C@@H](Nc1ncnc2[nH]c(-c3cnn(CC4CC4)c3)cc12)c1ccc2c(c1)OCCO2`, for which the IC50 was 0.804 µM and 0.853 µM. For `CC(C)[C@@H](Nc1ncnc2[nH]c(C3=CCOC3)cc12)c1ccc2c(c1)OCCO2`, the concentration for half-maximal inhibition (IC50) was 0.421 µM and 0.563 µM.

The term IC50 denotes the point on the concentration scale where inhibition reaches its midpoint. Lower therefore signals inhibition by little substance.
